Series [1] in a line: Radiochemical HPLC profiling of urine after [^14C]DMAE. In kind it is in vivo, Harlan Sprague Dawley rats.
Test in series [2]: as above
Particulars: Oral.

A short description of series [3]: Formation of N,N-dimethylnitrosamine after oral DMAE. The class given is in vivo. Particulars: rats, oral DMAE 10 to 500 mg/kg; limit of quantitation 5 pg/mL.
For series [4] the following is noted: for residual radioactivity remaining in tissues (excluding GI tract): male and female rats.
For series [5] the following is noted: female mice, gavage 160 mg/kg, 24 h.
Series [6] concerns rodents. The settings on record: ref NTP 2002; cited from earlier work.
Setting [7] is: female rats, IV 16 mg/kg, 24 h, DMAE dose 0.
Setting [8] is: female rats, IV 16 mg/kg, 24 h, DMAE dose 0, listed as [^14C]choline, 16 mg/kg.
The mark [9] stands for this setting: female rats, gavage 160 mg/kg, 24 h, DMAE dose 0.
Where [10] appears, read: female rats, gavage 160 mg/kg, 24 h, DMAE dose 0, listed as [^14C]choline, 160 mg/kg.
Setting [11] is: female rats, gavage 160 mg/kg, 24 h, DMAE pre-treatment 100 mg/kg.
The mark [12] stands for this setting: female rats, gavage 160 mg/kg, 24 h, DMAE pre-treatment 500 mg/kg.
The mark [13] stands for this setting: male rats, IV 16 mg/kg, 24 h, DMAE dose 0.
The mark [14] stands for this setting: male rats, gavage 160 mg/kg, 24 h, DMAE dose 0.
Setting [15] is: male rats, gavage 160 mg/kg, 24 h, DMAE pre-treatment 100 mg/kg, 1 h prior.
Where [16] appears, read: male rats, gavage 160 mg/kg, 24 h, DMAE pre-treatment 500 mg/kg, 1 h prior.
[17] abbreviates: male rats, gavage 160 mg/kg, 24 h, three DMAE pre-treatments 100 mg/kg 48, 24 and 1 h prior.
The mark [18] stands for this setting: DMAE dose 0, listed as [^14C]choline, 160 mg/kg.
The mark [19] stands for this setting: DMAE pre-treatment 500 mg/kg, 1 h prior.

Several values for one entry are separate records, joined by “and”; a condition that tells them apart may be missing. Equal values may be shown once. Read-outs that look alike come from different tables or passages of the source.

Regarding `C[N+](C)([O-])CCO` [DMAE Oxide], the “Estimated percentage of area of DMAE Oxide peak in urine chromatogram” value in series [1] (Rat/Female, [^14C]DMAE 500 mg/kg, Oral) was 45%; in series [1] (Rat/Male, [^14C]DMAE 10 mg/kg, IV) it was 97%; in series [1] (Rat/Male, [^14C]DMAE 10 mg/kg, Oral) it was 5%; in series [1] (Rat/Male, [^14C]DMAE 100 mg/kg, Oral) it was 44%; in series [1] (Rat/Male, [^14C]DMAE 500 mg/kg, Oral), 66%; in series [2] (Mouse/Female, [^14C]DMAE 10 mg/kg) it was 92%. Also, the “Estimated percentage of area of DMAE Oxide peak in urine chromatogram” value is listed as 18% in series [2] (Mouse/Female, [^14C]DMAE 100 mg/kg); 34% in series [2] (Mouse/Female, [^14C]DMAE 500 mg/kg); 0% in series [2] (Mouse/Male, [^14C]DMAE 500 mg/kg); “absent” in series [2] (Mouse/Male, [^14C]DMAE 500 mg/kg, listed as DMAE oxide).

For `CN(C)N=O` [N,N-dimethylnitrosamine], in series [3], the “N,N-dimethylnitrosamine detection” value is given as “not detected”.

Turning to `C[N+](C)(C)CCO` [choline, N,N,N-trimethylaminoethanol], the “% Dose Recovered, CO2” value in series [4] (setting [7]) was 28.1 ± 2.90 % dose; in series [4] (setting [10]) it was 18 % dose and 17.8 ± 1.70 % dose; in series [4] (setting [12]), 22.4 ± 3.60 % dose; in series [4] (setting [13]), 17.4 ± 2.40 % dose; in series [4] (male rats, gavage 160 mg/kg, 24 h, DMAE dose 0, listed as [^14C]choline, 160 mg/kg), 12.5 ± 2.20 % dose; in series [4] (setting [15]) it was 12.4 ± 1.70 % dose. In addition, the “% Dose Recovered, CO2” value was 15.1 ± 4.00 % dose in series [4] (setting [16]); 17.0 ± 1.70 % dose in series [4] (setting [17]); 25 % dose and 24.5 ± 5.40 % dose in series [5] (setting [18]); 26.4 ± 8.60 % dose in series [5] (setting [19]). The “% Dose Recovered, Tissues and GI Tract (includes contents)” value in series [4] (setting [7]) stood at 54.0 ± 5.50 % dose; in series [4] (setting [9]), 26.1 ± 3.80 % dose; in series [4] (setting [11]), 24.7 ± 2.70 % dose; in series [4] (setting [12]) it was 25.9 ± 4.70 % dose; in series [4] (setting [13]) it was 56.2 ± 9.90 % dose; in series [4] (setting [14]), 21.4 ± 2.80 % dose. Further, the “% Dose Recovered, Tissues and GI Tract (includes contents)” value in series [4] (setting [15]) is on record as 20.4 ± 5.60 % dose; in series [4] (setting [16]), 20.0 ± 3.80 % dose; in series [4] (setting [17]), 26.6 ± 5.30 % dose; in series [5] (DMAE dose 0) it was 18.2 ± 2.90 % dose; in series [5] (setting [19]) it was 18.4 ± 9.80 % dose. The “% Dose Recovered, VOCs” value is reported as 0.284 ± 0.038 % dose in series [4] (setting [7]); 0.325 ± 0.025 % dose in series [4] (setting [9]); 0.268 ± 0.026 % dose in series [4] (setting [11]); 0.227 ± 0.057 % dose in series [4] (setting [12]); 0.139 ± 0.035 % dose in series [4] (setting [13]); 0.018 ± 0.003 % dose in series [4] (setting [15]). Besides, the “% Dose Recovered, VOCs” value in series [4] (setting [16]) was 0.065 ± 0.002 % dose; in series [4] (setting [17]) it was “below the limit of detection”; in series [5] (setting [18]), 4 % dose and 3.61 ± 3.75 % dose; in series [5] (setting [19]), 2.41 ± 1.77 % dose. For the same compound, the “% Dose Recovered, Total Recovered” value was determined as 90.1 ± 6.10 % dose in series [4] (setting [8]); 91.3 ± 9.60 % dose in series [4] (setting [9]); 92.9 ± 4.80 % dose in series [4] (setting [11]); 94.1 ± 4.80 % dose in series [4] (setting [12]); 88.2 ± 5.50 % dose in series [4] (setting [14]); 93.7 ± 2.70 % dose in series [4] (setting [17]). Also, the “% Dose Recovered, Urine” value is 7 % dose and 7.45 ± 2.58 % dose in series [4] (setting [8]); 34 % dose and 34.2 ± 7.90 % dose in series [4] (setting [10]); 43.3 ± 5.60 % dose in series [4] (setting [12]); 4 % dose and 3.92 ± 0.850 % dose in series [4] (male rats, IV 16 mg/kg, 24 h, DMAE dose 0, listed as [^14C]choline, 16 mg/kg); 31.9 ± 4.60 % dose in series [4] (setting [15]); 40.7 ± 6.30 % dose in series [4] (setting [16]). In addition, the “% Dose Recovered, Urine” value in series [4] (setting [17]) is 39.9 ± 3.80 % dose; in series [5] (setting [18]) it was 32 % dose and 31.8 ± 11.1 % dose; in series [5] (DMAE pre-treatment 500 mg/kg, 1 h prior, listed as [^14C]choline), 32 % dose and 32.4 ± 7.20 % dose. Further, the “dose recovered in tissues (excluding GI tract)” value in series [4] (setting [11]) was 21%; in series [4] (male rats, gavage 160 mg/kg, 24 h, [^14C]choline alone), ~ 18%. Also, in series [4] (female rats, gavage 160 mg/kg, 24 h, [^14C]choline alone), the “recovery in tissues other than the GI tract” value is on record as ~ 21%. Further, the total dose recovered in series [4] (female rats, gavage 160 mg/kg, range over groups) was 91–94%. The “residual radioactivity remaining in tissues (excluding GI tract)” value in series [4] (IV 16 mg/kg, 24 h) is given as 48–49%; in series [4] (oral gavage, 24 h), 17–21%. For the same compound, the “dose recovered in feces” value in series [4] (male rats, gavage 160 mg/kg, 24 h, pre-treatment with multiple doses of 100 mg/kg or a single dose of 500 mg/kg DMAE) is 10–12%. Moreover, the “recovery in tissues (excluding GI tract)” value in series [5] ([^14C]choline alone) was found to be 15%. In series [6], the “oral LD50” value is listed as 3400 to 3900 mg/kg.

The values are drawn from publication PMC7252906 (Toxicology and applied pharmacology, 2019).
